The results in this text go back to paper PMC3153577 (Biochemistry, 2011).

Molecules are shown by their SMILES. Read-outs that look alike come from different tables or passages of the source.

Experiment [1] deals with T1, MtDHFR-NADP^+ (Mycobacterium tuberculosis, UniProt P9WNX1).
T1 sequence (P9WNX1 1-161): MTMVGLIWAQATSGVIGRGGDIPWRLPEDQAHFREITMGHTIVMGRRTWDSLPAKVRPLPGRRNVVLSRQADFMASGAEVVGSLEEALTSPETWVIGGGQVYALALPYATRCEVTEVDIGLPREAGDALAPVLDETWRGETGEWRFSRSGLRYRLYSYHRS
Format: binding. Conditions: for koff: competitor NADPH.

The target in experiment [2] is T2, MtDHFR (Mycobacterium tuberculosis, UniProt P9WNX1).
T2 sequence (P9WNX1 1-161): T1 sequence (P9WNX1 1-161)

Experiment [3] has as its target T3, MtDHFR-NADPH (Mycobacterium tuberculosis, UniProt P9WNX1).
T3 sequence (P9WNX1 1-161): T1 sequence (P9WNX1 1-161)
As to conditions: NADP^+ competition.

Setting [4] is: NADPH dissociation from MtDHFR-NADPH-THF.
Where [5] appears, read: NADPH dissociation from MtDHFR-NADPH.

As usually defined, the koff is the rate constant with which the complex falls apart. High values mean fast dissociation, low ones slow dissociation.

Take `NC(=O)c1ccc[n+]([C@H]2O[C@@H](COP(=O)([O-])OP(=O)(O)OC[C@H]3O[C@@H](n4cnc5c(N)ncnc54)[C@H](OP(=O)(O)O)[C@@H]3O)[C@H](O)[C@@H]2O)c1` [NADP^+, nicotinamide adenine dinucleotide phosphate (oxidized form)]: the “k12, value obtained by analytical fitting” value in experiment [1] (NADP^+ dissociation from MtDHFR-NADP^+-DHF, NADPH competition) was found to be 7.8 ± 0.1 s⁻¹. In experiment [1] (NADP^+ dissociation from MtDHFR-NADP^+-THF, NADPH competition), the “k3, value obtained by analytical fitting” value worked out at 8.02 ± 0.02 s⁻¹. The “k9, value obtained by analytical fitting” value in experiment [1] (NADP^+ dissociation from MtDHFR-NADP^+, NADPH competition) is 98 ± 4 s⁻¹. The koff in experiment [1] (NADP^+ from MtDHFR-NADP^+-DHF) stood at 7.8 ± 0.1 s⁻¹; in experiment [1] (NADP^+ from MtDHFR-NADP^+-THF) it was 8.0 ± 0.1 s⁻¹; in experiment [1] (NADP^+ from MtDHFR-NADP^+), 97.6 ± 4.1 s⁻¹. In experiment [2] (NADP^+ association to MtDHFR-THF, not determined experimentally), the “k−3, best-fit value – global fitting” value worked out at 1.09e+08 ± 6e+06 M⁻¹ s⁻¹. The “k−9, best-fit value – global fitting” value in experiment [2] (NADP^+ association to free enzyme, linked to k9 based on KNADP = 0.33 μM) worked out at 2.68e+08 ± 7e+06 M⁻¹ s⁻¹. In experiment [2] (NADP^+ dissociation from MtDHFR-NADP^+), the “k9, best-fit value – global fitting” value was found to be 81 ± 2 s⁻¹. Moreover, the “k12, best-fit value – global fitting” value in experiment [2] (NADP^+ dissociation from MtDHFR-NADP^+-DHF) stood at 2.1 ± 0.2 s⁻¹. The “k3, best-fit value – global fitting” value in experiment [2] (NADP^+ dissociation from MtDHFR-NADP^+-THF) turned out to be 7.3 ± 0.1 s⁻¹.
On to `NC(=O)C1=CN([C@@H]2O[C@H](COP(=O)(O)OP(=O)(O)OC[C@H]3O[C@@H](n4cnc5c(N)ncnc54)[C@H](OP(=O)(O)O)[C@@H]3O)[C@@H](O)[C@H]2O)C=CC1` [NADPH, nicotinamide adenine dinucleotide phosphate (reduced form)], for which, in experiment [3] (setting [4]), the “k−4, value obtained by analytical fitting” value came out at 1.7 ± 0.6 s⁻¹. Further, the “k−10, value obtained by analytical fitting” value in experiment [3] (setting [5]) was 0.13 ± 0.01 s⁻¹. Besides, in experiment [2] (NADPH association to MtDHFR-THF, not determined experimentally), the “k4, best-fit value – global fitting” value came out at 1.01e+08 M⁻¹ s⁻¹. Moreover, the “k−10, best-fit value – global fitting” value in experiment [2] (setting [5]) came to 0.08 ± 0.01 s⁻¹. In addition, the “k−4, best-fit value – global fitting” value in experiment [2] (setting [4]) came to 1.1 ± 0.1 s⁻¹.
